Measured values: patent US9861653B2, “Synergistic anti-cancer composition and a process for the preparation thereof” (Council of Scientific and Industrial Research, priority 2012, dated 2018)
“Also recorded” adds a separate entry of the source.

How the values were obtained:
[1] = tested on: PANC-1 pancreatic cancer cells; assay: MTS viability assay on PANC-1 pancreatic cancer cells; format: cell-based, human; details: 48 h, ESC8 5 or 2.5 μM
Experimental: (§1) Cells were treated for 48 h with a) DX-ESC8+NRP-1 ShRNA plasmid, b) DX-ESC8+control plasmid, c) DO-ESC8+NRP-1, d) DO-ESC8+control plasmid e) ESC8, as free drug at the drug concentrations of 5 or 2.5 μM in either naked or respective formulated state. The % of viabilities of treated cells (Y-axis) were calculated with respect to untreated cells [* denotes p<0.01 between DX-ESC8 lipoplex groups with other groups].
(§2) Cancer cells (ANV-1, PANC-1, ASPC-1) were inoculated at a concentration of 5000 cells/well of 96-well cell culture plates in 10% Fetal Calf serum (FCS) containing DMEM media. Following an incubation of minimum of 16 h at 37° C., the cells were treated in triplicate with respective lipoplexes (DX-ESC8, DO-ESC8, DX,) pre-complexed with 0.3 μg of NRP-1 or control plasmid amounts per well as discussed in Example 1. The cells were also treated with naked liposomes with or without ESC8 or free drug, ESC8, in a final volume of 300 μl (volume made up with 10% FCS containing DMEM media) continuously for 48 h (mostly) or 72 h. […] Thereafter cells were assayed for viability using MTS assay kit (Promega) following manufacturer's protocol.

[2] = tested on: ASPC-1 pancreatic cancer cells; assay: MTS viability assay on ASPC-1 pancreatic cancer cells; format: cell-based, human; details: 48 h or 72 h continuous treatment, ESC8 5 μM
Experimental: as §1, with “DO-ESC8+NRP-1 ShRNA plasmid,” for “DO-ESC8+NRP-1,”, “DX+NRP-1 ShRNA plasmid, followed by ESC8 treatment” for “DO-ESC8+control plasmid”, “concentration” for “concentrations”, “5” for “5 or 2.5”
Cells were treated for 72 h with a) DX-ESC8+NRP-1 ShRNA plasmid, b) DX-ESC8+control plasmid, c) DX+NRP-1 ShRNA plasmid, d) DO+NRP-1 ShRNA plasmid e) ESC8, as free drug at the drug concentration of 5 μM in either naked or respective formulated state. For groups c and d the liposome concentrations of DX or DO were equivalent to the corresponding liposome concentration in DX-ESC8 containing 5 μM ESC8. The % of viabilities of treated cells (Y-axis) were calculated with respect to untreated cells [* denotes p<0.01 between DX-ESC8 lipoplex groups or DX+NRP-1 ShRNA plasmid group with other groups].
Cancer cells (ANV-1, PANC-1, ASPC-1) were inoculated at a concentration of 5000 cells/well of 96-well cell culture plates in 10% Fetal Calf serum (FCS) containing DMEM media. […]

[3] = tested on: ANV-1 breast cancer cells with CSC-like property; assay: MTS viability assay on ANV-1 breast cancer cells; format: cell-based, mouse
Experimental: The % of viabilities of treated cells (Y-axis) were calculated with respect to untreated cells [* denotes p<0.001 between DX-ESC8+NRP-1 group with other groups]
Cells were treated with a) DX-nutilin+NRP-1 ShRNA plasmid, b) DX-nutilin+control plasmid, c) DX+NRP-1 ShRNA plasmid, d) nutilin as free drug. The treatments were done in two different conditions, a) continuous treatment for 48 h by the respective formulations with […] effective nutilin concentration; b) treatment for only 4 h by respective formulations with […] effective nutilin concentrations. The % viabilities of treated cells (Y-axis) were calculated with respect to untreated cells.
as §2
For cells treated with DX-nutilin, the test solutions were: a) DX-nutilin pre-complexed with 0.3 µg of NRP-1 Sh-RNA plasmid, b) […] pre-complexed with 0.3 µg control plasmid, c) DX liposome pre-complexed with 0.3 µg NRP-1 Sh-RNA plasmid, d) only […] addition.

SMILES: CCCCCCCC[N+](C)(CCCCCCCC)CCC[C@]1(O)CC[C@H]2[C@@H]3CCc4cc(O)ccc4[C@H]3CC[C@@]21C [ESC8, 17-α-[3-(N,N-dioctyl,N-methyl-amino)-propan-1-yl]-17β-estradiol]
- anti-cancer effect on PANC-1 cells [1]: no anticancer effect; also recorded: no toxicity
- killing / anticancer effect on ASPC-1 cells [2]: no anticancer effect; also recorded: least toxic effect
- anticancer effect towards ANV-1 breast cancer cells ([3]; 48 h, ESC8 10 or 5 μM naked or formulated (FIG. 1)): very limited effect; also recorded: least anticancer effect
- viability of ANV-1 cells ([3]; 48 h treatment, drug concentration 10 or 5 μM, with respect to untreated cells (FIG. 1)): 60-70%
- ESC8 free drug concentration needed to get 95-100% of ANV-1 cell killing ([3]; 72 h treatment): at least 50 μM
- visual effect on ANV-1 cells ([3]; shorter treatment time): no visual effect
